Key:
PND5 rat cultures = assay: Post natal day 5 rat cortical/subventricular zone cultures, immunostaining; format: cell-based
Description: The method of the invention is also exemplified by a second embodiment in which N-[4-[(4-fluorophenyl)sulfonyl]phenyl]acetamide is administered in vitro to tissue from postnatal mammals. Treatment with N-[4-[(4-fluorophenyl)sulfonyl]phenyl]acetamide results in neuroregeneration as evidenced by immunostaining for beta-tubulin, eNCAM and MAP II. Neural tissue harvested from Post Natal day 5 (PND5) animals can be prepared in culture by the method above used with E18 cells, except that the cultures are not treated with glutamate because the neurons are unable to survive the culture preparation step. Using an assay system, cells can be treated with N-[4-[(4-fluorophenyl)sulfonyl]phenyl]acetamide 24 hours after the cultures are established.
In one study, PND-5 day cultures generated from tissue isolated specifically from the subventricular zone were compared to cultures generated from the whole cortex. Twenty four hours after dissection, cultures were treated with the compound. Four weeks after treatment, cultures were immunostained with antibodies against β-tubulin or antibodies against MAP II.
Post natal day 5 rat pups (Taconic Labs) were decapitated, skin covering the cranium was removed so the bone over top the brain could be opened. Using a sterile spatula, the brain was extracted from the opened cranium and transferred to a 60 mm petri dish (Corning) containing sterile, ice cold Hank's balanced salt solution (HBSS). The meningial tissue was removed from the cortex, the cortex was gently teased away from the subcortical structures and transferred to a new 60 mm petri dish containing ice cold HBSS. Using a pair of fine, curved forceps, the desired cortical material was pinched from the remainder of the cortex and transferred to a new 60 mm petri dish containing ice cold HBSS. For most experiments, only tissue in the immediate vicinity of the subventricular zone was collected while in a few experiments, almost the entire cortex was pinched leaving only the outer most layer of cortical tissue behind. After harvesting all cortical tissue, the tissue was minced using two #11 scalpel blades that were repeatedly drawn across each other. After the majority of the tissue was minced into approximately 1 mm cubes, the HBSS was removed and replaced with 4 ml of trypsin/EDTA (Gibco—0.5%/5.3 mM) plus 1 ml of DNase (Sigma—0.01%). The petri dish containing tissue and enzymes were placed in a 37° C. incubator for 30 minutes and agitated every 5 minutes. After 30 minutes, the tissue was removed from the incubator and 1 ml 0.1 mg/ml of soybean trypsin inhibitor was added. Tissue was transferred to a 15 ml conical tube, spun at 500×g for 10 minutes in a refrigerated centrifuge. Supernatant was removed, the pellet was resuspended in 10 ml of DMEM+10% FBS, passed first through a 100 μm filter (Falcon) and finally through a 40 μm filter (Falcon). A cell count was performed to determine the final volume of media needed to yield a cell density of 1×10^6 viable cells per ml. Five hundred microliters of supernatant containing 5×10^5 viable cells was added to each well of 24 well cluster plates previously coated with 5 μg/ml poly lysine.
To remove the cellular debris, all plates were washed 24 hours after plating. Each plate was gently rocked several times, the media was removed and replaced with 1 ml of 37° C. DMEM. […]

[1] = test system: compressive injuries to the spinal cords of rats; assay: Compressive spinal cord injury, closure of cavities; format: in vivo, rat; conditions: compound in a saline vehicle; vs untreated or saline treated rats
Excerpt: In another study, cavities are induced by compressive injuries to the spinal cords of rats. In the study, rats are either untreated, treated with a saline vehicle, or treated with N-[4-[(4-fluorophenyl)sulfonyl]phenyl]acetamide in a saline vehicle.

[2] = study of subventricular zone vs whole cortex cultures, four weeks after treatment

SMILES: CC(=O)Nc1ccc(S(=O)(=O)c2ccc(F)cc2)cc1 [N-[4-[(4-fluorophenyl)sulfonyl]phenyl]acetamide]
- number of β-tubulin positive cells (PND5 rat cultures; four weeks post treatment, vs untreated control wells): increased numbers of β-tubulin positive cells
- eNCAM expression (PND5 rat cultures; one week post treatment, vs untreated control samples): Enhanced expression of eNCAM
- MAP-II expression (PND5 rat cultures; six weeks post treatment, vs untreated control samples): MAP-II expression is enhanced
- number of MAP II positive cells (PND5 rat cultures; [2]): Greater numbers
- number of β-tubulin positive cells (PND5 rat cultures; [2]): Greater numbers
- extent of closure of the cavity in the spinal cord [1]: most extensive closure of the cavity
